Patent US12391706B2, “Multi-target tyrosine kinase inhibitor” (SHENZHEN NEPTUNUS PHARMACEUTICAL RESEARCH INSTITUTE CO., …, priority 2020, dated 2025)

What was measured:
H82 = H82 nude mouse xenograft model; format: in vivo; settings: 50 mg/kg * 14 d, i.g, QD
Method: (§1) Test method: 5×10^6 MKN-45 gastric cancer cells were inoculated under the fat pad of the right rib of nude mice, and the tumor formation was observed. Two weeks after the inoculation, the tumor-bearing mice were divided into groups and orally administered with td32-4, td32-4P3, td32-4P6, td32-4P9, and td32-4P10 at a dose of 100 mg·kg^−1, once a day for 14 days, respectively. Tumor volumes were measured with a caliper and recorded.
(§2) The compound td32-4P10 was selected for in vivo activity evaluation. The tumor inhibitory activity data of td32-4P10 were tested in MV-4-11, H358 and H82 nude mouse xenograft model, respectively. Meanwhile, the changes in tumor volume during the treatment, and the changes in body weight of the nude mice induced by the drug during the treatment were measured. After the treatment, the tumor weights were counted. The tumor anatomical images after the treatment were recorded.

[1] = In vivo transformation / pharmacokinetic study in SD rats; settings: for time to almost complete conversion into td32-4 in vivo: oral 200 mg·kg^−1
Source text: The compounds of the present invention have improved solubility by introducing a hydrophilic functional group into the structure of td32-4 through an ester bond. After oral administration, the compounds need to be converted into td32-4 in the physical and chemical environment in vivo to exert pharmacological effects. In this example, some representative compounds were selected for in vivo pharmacokinetic studies in SD rats, and compared with direct oral administration of td32-4. The experiment was performed at high (200 mg·kg^−1) and low (10 mg·kg^−1) doses. 5 mg of the test sample was placed into a glass bottle. 1 mL of DMA (dimethylacetamide) was added and vortexed to dissolve the solid completely. 1.5 mL of PEG400 was added, vortexed and mixed well. 2.5 mL of physiological saline for injection was added, vortexed, mixed well. The mixture was filtered with a filter membrane (PALL, Nylon, 0.45 μm) to obtain a colorless and clear solution. The test sample was administered to experimental animals (n=3) by tail vein injection at a dose of 5 mg·kg^−1 (1 mg·mL^−1). An appropriate amount of the test sample was placed into a glass bottle. PEG400 was added, vortexed and mixed well. The mixture was sonicated to obtain a clear solution. The test sample was administered to experimental animals (n=3) by gavage at a dose of 10 mg·kg^−1 and 200 mg·kg^−1, respectively. SD rats were weighed before administration, and the dose was calculated according to the body weight. They were administered by intravenous injection or by gavage. Blood was collected through the submandibular vein or other suitable ways, at intervals of 0, 0.083, 0.25, 0.5, 1, 2, 4, 8, 12, 24 hours. About 0.20 mL of each sample was collected, anticoagulated with EDTA-K2, and placed on ice after collection, and centrifuged within 1 hour to separate plasma (centrifugation conditions: 6800 g, 6 minutes, 2-8° C.). Plasma samples were stored in a −80° C. freezer prior to analysis. The blood drug concentration of each sample was analyzed using LC-MS/MS. […]

[2] = Solubility test (water), Chinese Pharmacopoeia 2015; format: physicochemical; settings: 25° C.±2° C., dissolution within 30 minutes
Method: The series of compounds synthesized in Examples 1-24 were subjected to solubility test (water), according to the solubility test methods in Chinese Pharmacopoeia, 2015 Edition. The specific test operations and evaluation criteria are as follows: An appropriate amount (1 mg-10 mg) of finely powdered compound was weighed, placed in a certain volume of solvent at 25° C.±2° C., and shaken vigorously for 30 seconds every 5 minutes; the dissolution within 30 minutes was observed. It was considered completely dissolved if there were no visible particles or droplets of the solute. [table]

H358 = H358 nude mouse xenograft model; format: in vivo; settings: 50 mg/kg * 21 d, i.g, QD
Method: as §1, §2

[3] = system: MKN-45 gastric cancer cells; test: Gastric cancer cell MKN45 xenograft model; format: in vivo, nude mice; settings: oral 100 mg·kg^−1 once a day for 14 days
Source text: • 1. Compounds (td32-4, td32-4P3, td32-4P6, td32-4P9, td32-4P10) were selected for in vivo activity evaluation at a single concentration. The animal model was gastric cancer cell MKN45 xenograft model.
as §1

MV-4-11 = MV-4-11 nude mouse xenograft model; format: in vivo; settings: MV-4-11 xenograft, 50 mg/kg * 21 d, i.g, QD
Method: as §1, §2

VEGFR = settings: cited from earlier work
[4] = low dose (10 mg·kg^−1), solution; cited from earlier work
c-Met = c-Met (Homo sapiens, UniProt P08581); settings: cited from earlier work
[5] = cited from earlier work
c-Kit = c-Kit (Homo sapiens, UniProt P10721); settings: cited from earlier work
[6] = system: multiple tumor cell models; settings: cited from earlier work

Chain of c-Met (P08581 25-1390): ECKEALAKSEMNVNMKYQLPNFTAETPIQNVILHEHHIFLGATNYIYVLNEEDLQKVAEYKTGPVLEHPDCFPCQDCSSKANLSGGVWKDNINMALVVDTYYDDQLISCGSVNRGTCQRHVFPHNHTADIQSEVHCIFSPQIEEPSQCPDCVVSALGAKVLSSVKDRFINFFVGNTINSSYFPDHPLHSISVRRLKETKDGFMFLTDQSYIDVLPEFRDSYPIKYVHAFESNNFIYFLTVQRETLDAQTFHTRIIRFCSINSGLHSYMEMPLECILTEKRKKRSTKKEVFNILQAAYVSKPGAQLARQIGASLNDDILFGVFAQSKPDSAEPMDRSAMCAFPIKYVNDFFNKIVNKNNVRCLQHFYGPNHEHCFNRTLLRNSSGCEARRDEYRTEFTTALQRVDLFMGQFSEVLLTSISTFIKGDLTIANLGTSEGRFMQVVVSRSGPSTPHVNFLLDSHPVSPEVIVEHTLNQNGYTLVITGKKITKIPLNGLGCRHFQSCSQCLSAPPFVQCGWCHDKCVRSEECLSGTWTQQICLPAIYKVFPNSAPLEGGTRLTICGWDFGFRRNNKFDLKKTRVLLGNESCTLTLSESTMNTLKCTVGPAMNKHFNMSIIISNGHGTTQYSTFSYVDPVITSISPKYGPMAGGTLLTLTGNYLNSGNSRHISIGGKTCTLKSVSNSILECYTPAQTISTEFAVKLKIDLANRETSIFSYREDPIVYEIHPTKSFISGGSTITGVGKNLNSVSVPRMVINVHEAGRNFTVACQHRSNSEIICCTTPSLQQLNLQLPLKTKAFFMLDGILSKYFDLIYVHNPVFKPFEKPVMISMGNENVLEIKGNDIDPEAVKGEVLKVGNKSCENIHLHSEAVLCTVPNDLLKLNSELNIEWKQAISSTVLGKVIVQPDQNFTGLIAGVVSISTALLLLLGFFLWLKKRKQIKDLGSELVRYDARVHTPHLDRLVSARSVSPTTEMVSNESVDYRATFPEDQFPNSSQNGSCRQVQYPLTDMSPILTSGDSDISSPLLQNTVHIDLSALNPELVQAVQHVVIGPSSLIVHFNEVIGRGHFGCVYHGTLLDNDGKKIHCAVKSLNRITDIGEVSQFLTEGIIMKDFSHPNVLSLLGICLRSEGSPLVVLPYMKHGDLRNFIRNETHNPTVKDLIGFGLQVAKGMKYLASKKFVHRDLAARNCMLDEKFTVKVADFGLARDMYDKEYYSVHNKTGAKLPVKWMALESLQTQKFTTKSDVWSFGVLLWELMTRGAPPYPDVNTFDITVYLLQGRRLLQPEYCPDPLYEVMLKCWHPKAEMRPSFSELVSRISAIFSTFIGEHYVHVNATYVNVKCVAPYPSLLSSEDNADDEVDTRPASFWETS
Chain of c-Kit (P10721 26-976): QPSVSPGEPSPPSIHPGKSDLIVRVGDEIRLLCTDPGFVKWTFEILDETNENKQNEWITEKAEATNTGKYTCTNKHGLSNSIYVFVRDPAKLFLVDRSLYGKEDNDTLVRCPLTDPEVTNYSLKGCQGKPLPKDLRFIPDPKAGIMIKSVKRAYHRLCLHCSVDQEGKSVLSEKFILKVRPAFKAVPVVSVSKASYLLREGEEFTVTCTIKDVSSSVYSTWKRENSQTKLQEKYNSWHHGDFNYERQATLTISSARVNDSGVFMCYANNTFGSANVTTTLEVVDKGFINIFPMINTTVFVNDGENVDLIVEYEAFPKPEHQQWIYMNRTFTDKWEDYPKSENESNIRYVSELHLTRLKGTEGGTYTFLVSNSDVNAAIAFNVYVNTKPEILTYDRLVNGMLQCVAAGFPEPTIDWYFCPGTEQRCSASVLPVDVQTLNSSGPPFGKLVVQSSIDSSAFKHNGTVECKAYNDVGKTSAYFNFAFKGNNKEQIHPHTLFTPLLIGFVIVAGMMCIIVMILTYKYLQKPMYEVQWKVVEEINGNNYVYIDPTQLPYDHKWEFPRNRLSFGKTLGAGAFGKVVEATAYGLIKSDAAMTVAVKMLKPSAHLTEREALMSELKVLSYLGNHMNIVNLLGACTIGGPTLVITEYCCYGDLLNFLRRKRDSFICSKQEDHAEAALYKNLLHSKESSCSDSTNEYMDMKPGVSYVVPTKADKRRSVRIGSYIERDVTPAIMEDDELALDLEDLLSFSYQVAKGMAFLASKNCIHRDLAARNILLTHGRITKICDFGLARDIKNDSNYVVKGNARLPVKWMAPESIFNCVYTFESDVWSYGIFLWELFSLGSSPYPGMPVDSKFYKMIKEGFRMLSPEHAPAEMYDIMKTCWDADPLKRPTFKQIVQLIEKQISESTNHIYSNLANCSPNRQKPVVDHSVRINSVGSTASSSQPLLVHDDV

Structure (SMILES) | T/C (%) (H82) | TGI (%) (H82) | time to almost complete conversion into td32-4 in vivo [1] | Water solubility test Result [2] | T/C (%) (H358) | TGI (%) (H358) | tumor inhibitory effect (tumor volume) [3] | T/C (%) (MV-4-11) | TGI (%) (MV-4-11) | conversion into td32-4 in vivo ([1]; oral 10 mg·kg^−1) | inhibitory activity (VEGFR) | oral bioavailability F [4] | inhibitory activity (c-Met) | water solubility [5] | inhibitory activity (c-Kit) | anti-proliferative activity [6]
CC(C)C(N)C(=O)OCCn1cc(-c2cc3nccc(Oc4ccc(NC(=O)C5(C(=O)Nc6ccc(F)cc6)CC5)cc4F)c3s2)cn1 (stereo not drawn) [td32-4P10, 2-(4-(7-(2-fluoro-4-(1-((4-fluorophenyl)carbamoyl)cyclopropane-1-carboxamide)phenoxy)thieno[3,2-b]pyridin-2-yl)-1H-pyrazolyl-1-yl)ethyl valinate] | 11% | 92% | ≤ 18 h | C (1 g of solute is soluble in 10~30 mL of sovent) | 6.6% | 112% | potent tumor inhibitory effect | 3.4% | 109% | – | – | – | – | – | – | –
CN(C)CC(=O)OCCn1cc(-c2cc3nccc(Oc4ccc(NC(=O)C5(C(=O)Nc6ccc(F)cc6)CC5)cc4F)c3s2)cn1 [td32-4P3, 2-(4-(7-(2-fluoro-4-(1-((4-fluorophenyl)carbamoyl)cyclopropane-1-carboxamide)phenoxy)thieno[3,2-b]pyridin-2-yl)-1H-pyrazolyl-1-yl)ethyldimethyl glycinate] | – | – | ≤ 18 h | C (1 g of solute is soluble in 10~30 mL of sovent) | – | – | potent tumor inhibitory effect | – | – | rapidly converted | – | – | – | – | – | –
O=C(Nc1ccc(F)cc1)C1(C(=O)Nc2ccc(Oc3ccnc4cc(-c5cnn(CCO)c5)sc34)c(F)c2)CC1 [td32-4] | – | – | – | G (1 g of solute is insoluble in 10000 mL of solvent) | – | – | did not show significant activity | – | – | – | potent inhibitory activity | 71.6% | potent inhibitory activity | extremely poor water solubility | potent inhibitory activity | potent anti-proliferative activity
